The results in this text go back to patent publication US12521425B2, “Method of liver cancer treatment with safranal-based formulations” (priority 2019, dated 2026).

As a reminder, the IC50 is the concentration at which inhibition is half-maximal.

This experiment has as its system HepG2 cells. Briefly: MTT assay, cell viability. In kind it is cell-based. The settings on record: HepG2, 50-900 μM for 24, 48 and 72 hours; read-out: IC50, inhibition of cellular viability. The method, then: MTT assay. HepG2 cells were seeded at a density of 5000 cells/well in 96-well plates in 100 μL of complete growth medium. Cells were allowed to attach before being treated with different concentrations of safranal (Sigma Aldrich) (50 μM, 100 μM, 500 μM, 700 μM and 900 μM) for 24, 48 and 72 hours. After which, the cells were treated with 3-[4,5-dimethylthiazol-2-yl]-2,5-diphenyltratrazolium bromide (MTT) (Sigma Aldrich) and incubated for 3 hours. The formed formazan crystals were dissolved using DMSO and the absorbance of the resulting product was measured at 570 nm using an Epoch microplate spectrophotometer (Bio-Tek). Cell viability is presented as percentile of the untreated control which was calculated accordingly: Percent of viable cells=(Abs. of treated cells/Abs. of control cells)×100. *p≤0.05, **p≤0.001, ***p≤0.0001.

For `CC1=C(C=O)C(C)(C)CC=C1` [safranal], the IC50 was 500 µM.
